Results: publication doi:10.1101/2021.06.15.448612v1 (biorxiv, 2021)

Molecular target: MsbA (Escherichia coli, UniProt P60752)
Experiment: isothermal titration calorimetry
Assay type: binding

Chain of MsbA (P60752 2-582): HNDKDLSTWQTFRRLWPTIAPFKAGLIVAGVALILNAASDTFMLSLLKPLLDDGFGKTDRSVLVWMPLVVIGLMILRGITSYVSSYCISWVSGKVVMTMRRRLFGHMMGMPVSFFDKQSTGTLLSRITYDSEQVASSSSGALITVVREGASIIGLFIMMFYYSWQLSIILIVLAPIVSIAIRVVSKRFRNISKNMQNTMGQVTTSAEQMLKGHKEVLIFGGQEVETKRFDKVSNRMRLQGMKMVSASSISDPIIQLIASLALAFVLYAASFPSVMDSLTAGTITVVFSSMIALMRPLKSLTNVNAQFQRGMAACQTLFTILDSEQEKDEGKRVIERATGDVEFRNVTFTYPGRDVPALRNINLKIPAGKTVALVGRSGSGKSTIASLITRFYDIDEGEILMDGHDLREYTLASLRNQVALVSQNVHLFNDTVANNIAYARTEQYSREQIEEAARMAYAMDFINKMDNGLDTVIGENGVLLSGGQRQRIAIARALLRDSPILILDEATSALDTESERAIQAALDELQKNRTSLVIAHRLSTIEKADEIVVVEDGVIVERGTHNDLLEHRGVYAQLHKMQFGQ

SMILES: Nc1ncnc2c1ncn2[C@@H]1O[C@H](COP(=O)(O)OP(=O)(O)NP(=O)(O)O)[C@@H](O)[C@H]1O [AMP-PNP]
- Kd: 5.1 µM
